Earlier results as cited in patent US20190224170A1, “THERAPIES AND METHODS TO TREAT INFLAMMATORY GASTROINTESTINAL DISEASES AND DISORDERS” (The Regents of the University of California, priority 2018, published 2019).

System: multiple sclerosis
Conditions: supplementation with high doses of biotin

Which clinical response does the source give for `O=C(O)CCCC[C@@H]1SC[C@@H]2NC(=O)N[C@@H]21` [biotin] here?
The clinical response was “distinctive positive clinical response”.
